From patent publication US9555022B2, “Substituted triazolopyridines” (Bayer Intellectual Property GmbH, priority 2010, dated 2017)
Where a name gives a salt, the structure may show the parent alone.

target: human full length recombinant Mps-1 kinase (Homo sapiens (Human), UniProt P33981); test: Mps-1 Kinase Assay (TR-FRET); assay type: biochemical; conditions: 10 μM ATP, 1 μM biotinylated peptide substrate, 60 min at 22° C., read-out: Mps-1 Inhibition, IC50 in M
Protocol: The human kinase Mps-1 phosphorylates a biotinylated substrate peptide. Detection of the phosphorylated product is achieved by time-resolved fluorescence resonance energy transfer (TR-FRET) from Europium-labelled anti-phospho-Serine/Threonine antibody as donor to streptavidin labelled with cross-linked allophycocyanin (SA-XLent) as acceptor. Compounds are tested for their inhibition of the kinase activity.
N-terminally GST-tagged human full length recombinant Mps-1 kinase (purchased from Invitrogen, Karslruhe, Germany, cat. no PV4071) was used. As substrate for the kinase reaction a biotinylated peptide of the amino-acid sequence […] (C-terminus in amide form, purchased from Biosynthan GmbH, Berlin) was used.
The concentration of Mps-1 in the assay was adjusted to the activity of the enzyme lot and was chosen appropriate to have the assay in the linear range, typical enzyme concentrations were in the range of about 1 nM (final conc. in the 5 μl assay volume).
The resulting mixture was incubated 1 h at 22° C. to allow the binding of the phosphorylated peptide to the anti-phospho(Ser/Thr)-Europium-antibody. Subsequently the amount of phosphorylated substrate was evaluated by measurement of the resonance energy transfer from the Europium-labelled anti-phospho(Ser/Thr) antibody to the Streptavidin-XLent.

human full length recombinant Mps-1 kinase, sequence (P33981 whole entry): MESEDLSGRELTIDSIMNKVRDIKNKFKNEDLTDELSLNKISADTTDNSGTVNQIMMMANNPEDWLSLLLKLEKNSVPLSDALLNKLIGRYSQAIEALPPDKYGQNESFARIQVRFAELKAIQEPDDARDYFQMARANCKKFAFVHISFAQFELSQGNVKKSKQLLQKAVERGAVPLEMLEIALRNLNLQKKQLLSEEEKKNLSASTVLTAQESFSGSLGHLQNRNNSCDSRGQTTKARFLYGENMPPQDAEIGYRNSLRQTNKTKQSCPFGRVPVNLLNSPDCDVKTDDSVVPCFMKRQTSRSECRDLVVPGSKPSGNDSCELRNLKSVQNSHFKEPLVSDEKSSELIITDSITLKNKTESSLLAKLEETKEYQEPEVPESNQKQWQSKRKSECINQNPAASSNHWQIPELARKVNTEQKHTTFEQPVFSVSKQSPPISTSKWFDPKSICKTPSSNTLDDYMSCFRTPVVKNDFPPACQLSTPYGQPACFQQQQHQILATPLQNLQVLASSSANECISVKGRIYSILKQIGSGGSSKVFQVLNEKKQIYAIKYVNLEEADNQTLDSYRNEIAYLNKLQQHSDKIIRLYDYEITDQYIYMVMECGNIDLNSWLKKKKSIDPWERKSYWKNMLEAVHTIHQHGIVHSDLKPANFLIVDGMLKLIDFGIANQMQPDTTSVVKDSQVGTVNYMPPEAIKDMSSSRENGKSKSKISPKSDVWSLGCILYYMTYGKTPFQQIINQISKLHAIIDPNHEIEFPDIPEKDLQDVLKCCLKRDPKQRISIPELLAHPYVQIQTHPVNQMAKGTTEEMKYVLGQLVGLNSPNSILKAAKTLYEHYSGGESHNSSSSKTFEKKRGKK

| IC50 | SMILES |
| --- | --- |
| ≤ 1 nM | CCOc1cc(C(=O)N2CCOCC2)ccc1Nc1nc2ccc(-c3ccc(C(=O)NCc4ccc(F)cc4)cc3)cn2n1 [Example 04.02, 4-(2-{[2-Ethoxy-4-(morpholin-4-ylcarbonyl)phenyl]amino}[,2]-triazolo[1,5-a]pyridin-6-yl)-N-(4-fluorbenzyl)benzamid] |
| ≤ 1 nM | Cc1cc(C(=O)N2CC3(COC3)C2)ccc1Nc1nc2ccc(-c3ccc(C(=O)NCc4ccc(F)cc4)cc3)cn2n1 [Example 04.28, N-(4-fluorobenzyl)-4-(2-{[2-methyl-4-(2-oxa-6-azaspiro[3.3]hept-6-ylcarbonyl)phenyl]amino}[,2]triazolo[1,5-a]pyridin-6-yl)benzamide] |
| ≤ 1 nM | COc1cc(C(=O)NC2COC2)ccc1Nc1nc2ccc(-c3ccc(C(=O)NCc4ccc(F)cc4)cc3)cn2n1 [Example 04.11, 4-[(6-{4-[(4-fluorobenzyl)carbamoyl]phenyl}[,2]triazolo[1,5-a]pyridin-2-yl)amino]-3-methoxy-N-(oxetan-3-yl)benzamide] |
| ≤ 1 nM | Cc1nc(N2CCOCC2)ccc1Nc1nc2ccc(-c3ccc(C(=O)NCc4ccc(F)cc4)cc3)cn2n1 [Example 04.33, N-(4-fluorobenzyl)-4-(2-{[2-methyl-6-(morpholin-4-yl)pyridin-3-yl]amino}[,2]triazolo[1,5-a]pyridin-6-yl)benzamide] |
| ≤ 1 nM | O=C(NCc1ccc(F)cc1)c1ccc(-c2ccc3nc(Nc4ccc(C(=O)N5CCOCC5)cc4OCC(F)F)nn3c2)cc1 [Example 04.22, 4-(2-{[2-(2,2-difluoroethoxy)-4-(morpholin-4-ylcarbonyl)phenyl]amino}[,2]-triazolo[1,5-a]pyridin-6-yl)-N-(4-fluorobenzyl)benzamide] |
| ≤ 1 nM | COc1cc(C(=O)N2CCOCC2)ccc1Nc1nc2ccc(-c3ccc(C(=O)NCc4ccc(F)cc4)c(OC)c3)cn2n1 [Example 09.01, N-(4-fluorobenzyl)-2-methoxy-4-(2-{[2-methoxy-4-(morpholin-4-ylcarbonyl)phenyl]amino}[,2]-triazolo[1,5-a]pyridin-6-yl)benzamide] |
| ≤ 1 nM | COc1ccc(C(=O)N2CCOCC2)cc1Nc1nc2ccc(-c3ccc(C(=O)NCc4ccc(F)cc4)cc3)cn2n1 [Example 04.32, N-(4-fluorobenzyl)-4-(2-{[2-methoxy-5-(morpholin-4-ylcarbonyl)phenyl]amino}[,2]-triazolo[1,5-a]pyridin-6-yl)benzamide] |
| ≤ 1 nM | COc1cc(C(=O)N2CCOCC2)ccc1Nc1nc2ccc(-c3ccc(C(=O)NCc4ccc(F)cc4)c(F)c3)cn2n1 [Example 06.01, 2-fluoro-N-(4-fluorobenzyl)-4-(2-{[2-methoxy-4-(morpholin-4-ylcarbonyl)phenyl]amino}[,2]-triazolo[1,5-a]pyridin-6-yl)benzamide] |
| ≤ 1 nM | COc1cc(C(=O)N2CCOCC2)ccc1Nc1nc2ccc(-c3ccc(C(=O)NCc4ccc(F)cc4)c(Cl)c3)cn2n1 [Example 08.01, 2-chloro-N-(4-fluorobenzyl)-4-(2-{[2-methoxy-4-(morpholin-4-ylcarbonyl)phenyl]amino}[,2]-triazolo[1,5-a]pyridin-6-yl)benzamide] |
| ≤ 1 nM | COc1cc(C2=NCCO2)ccc1Nc1nc2ccc(-c3ccc(C(=O)NCc4ccc(F)cc4)cc3)cn2n1 [Example 04.05, 4-(2-{[4-(4,5-dihydro-1,3-oxazol-2-yl)-2-methoxyphenyl]amino}[,2]-triazolo[1,5-a]pyridin-6-yl)-N-(4-fluorobenzyl)benzamide] |

The remaining lines, values behind:

| SMILES | IC50 |
| --- | --- |
| COc1cc(S(=O)(=O)N2CCOCC2)ccc1Nc1nc2ccc(-c3ccc(NC(=O)Cc4ccc(F)cc4)cc3)cn2n1 [Example 02.37, 2-(4-fluorophenyl)-N-[4-(2-{[2-methoxy-4-(morpholin-4-ylsulfonyl)phenyl]amino}[,2]-triazolo[1,5-a]pyridin-6-yl)phenyl]acetamide] | ≤ 1 nM |
| CCOc1cc(C(=O)N2CC3(COC3)C2)ccc1Nc1nc2ccc(-c3ccc(NC(=O)Cc4ccc(F)cc4)cc3)cn2n1 [Example 02.23, N-[4-(2-{[2-ethoxy-4-(2-oxa-6-azaspiro[3.3]hept-6-ylcarbonyl)phenyl]amino}[,2]triazolo[1,5-a]pyridin-6-yl)phenyl]-2-(4-fluorophenyl)acetamide] | ≤ 1 nM |
| COc1cc(C(=O)N2CCOCC2)ccc1Nc1nc2ccc(-c3ccc(NC(=O)CC4CC4)cc3)cn2n1 [Example 01.01, 2-cyclopropyl-N-[4-(2-{[2-methoxy-4-(morpholin-4-ylcarbonyl)phenyl]amino}[,2]-triazolo[1,5-a]pyridin-6-yl)phenyl]acetamide] | 5.56 nM |
| COc1cc(N2CCN(C)CC2)ccc1Nc1nc2ccc(-c3ccc(NC(=O)CC4CC4)cc3)cn2n1 [Example 01.03, 2-cyclopropyl-N-[4-(2-{[2-methoxy-4-(4-methylpiperazin-1-yl)phenyl]amino}[,2]-triazolo[1,5-a]pyridin-6-yl)phenyl]acetamide trifluoroacetate] | 6.02 nM |
| Cc1cc(C2=NCCO2)ccc1Nc1nc2ccc(-c3ccc(NC(=O)Cc4ccc(F)cc4)cc3)cn2n1 [Example 02.15, N-[4-(2-{[4-(4,5-dihydro-1,3-oxazol-2-yl)-2-methylphenyl]amino}[,2]triazolo[1,5-a]pyridin-6-yl)phenyl]-2-(4-fluorophenyl)acetamide] | ≤ 1 nM |
| COc1cc(C(=O)N2CCS(=O)(=O)CC2)ccc1Nc1nc2ccc(-c3ccc(NC(=O)Cc4ccc(F)cc4)cc3)cn2n1 [Example 02.18, N-{4-[2-({4-[(1,1-dioxidothiomorpholin-4-yl)carbonyl]-2-methoxyphenyl}amino)[,2]triazolo[1,5-a]pyridin-6-yl]phenyl}-2-(4-fluorophenyl)acetamide] | ≤ 1 nM |
| Cc1nc(N2CCCC2)ccc1Nc1nc2ccc(-c3ccc(NC(=O)Cc4ccc(F)cc4)cc3)cn2n1 [Example 02.43, 2-(4-fluorophenyl)-N-[4-(2-{[2-methyl-6-(pyrrolidin-1-yl)pyridin-3-yl]amino}[,2]-triazolo[1,5-a]pyridin-6-yl)phenyl]acetamide] | ≤ 1 nM |
| CCOc1cc(C(=O)N2CCN(C(=O)OC(C)(C)C)CC2)ccc1Nc1nc2ccc(-c3ccc(NC(=O)Cc4ccc(F)cc4)cc3)cn2n1 [Example 02.05, tert-butyl 4-(3-ethoxy-4-{[6-(4-{[(4-fluorophenyl)acetyl]amino}phenyl)[,2]triazolo[1,5-a]pyridin-2-yl]amino}benzoyl)piperazine-1-carboxylate] | ≤ 1 nM |
| COc1cc(OC2CCN(C)CC2)ccc1Nc1nc2ccc(-c3ccc(NC(=O)Cc4ccc(F)cc4)cc3)cn2n1 [Example 02.35, 2-(4-fluorophenyl)-N-{4-[2-({2-methoxy-4-[(1-methylpiperidin-4-yl)oxy]phenyl}amino)[,2]triazolo[1,5-a]pyridin-6-yl]phenyl}acetamide] | ≤ 1 nM |
| Cc1nc(N2CCOCC2)ccc1Nc1nc2ccc(-c3ccc(NC(=O)Cc4ccc(F)cc4)cc3)cn2n1 [Example 02.42, 2-(4-fluorophenyl)-N-[4-(2-{[2-methyl-6-(morpholin-4-yl)pyridin-3-yl]amino}[,2]-triazolo[1,5-a]pyridin-6-yl)phenyl]acetamide] | ≤ 1 nM |
| COc1cc(C(=O)N2CC(O)C2)ccc1Nc1nc2ccc(-c3ccc(NC(=O)Cc4ccc(F)cc4)cc3)cn2n1 [Example 02.19, 2-(4-fluorophenyl)-N-{4-[2-({4-[(3-hydroxyazetidin-1-yl)carbonyl]-2-methoxyphenyl}amino)[,2]triazolo[1,5-a]pyridin-6-yl]phenyl}acetamide] | ≤ 1 nM |
| Cc1cc(C(=O)N2CCOCC2)ccc1Nc1nc2ccc(-c3ccc(NC(=O)Cc4ccc(F)cc4)cc3)cn2n1 [Example 02.39, 2-(4-fluorophenyl)-N-[4-(2-{[2-methyl-4-(morpholin-4-ylcarbonyl)phenyl]amino}[,2]-triazolo[1,5-a]pyridin-6-yl)phenyl]acetamide] | ≤ 1 nM |
| COc1ccc(C(=O)N2CCOCC2)cc1Nc1nc2ccc(-c3ccc(NC(=O)Cc4ccc(F)cc4)cc3)cn2n1 [Example 02.41, 2-(4-fluorophenyl)-N-[4-(2-{[2-methoxy-5-(morpholin-4-ylcarbonyl)phenyl]amino}[,2]-triazolo[1,5-a]pyridin-6-yl)phenyl]acetamide] | ≤ 1 nM |
| CCOc1cc(N2CCOC2=O)ccc1Nc1nc2ccc(-c3ccc(NC(=O)Cc4ccc(F)cc4)cc3)cn2n1 [Example 02.12, N-[4-(2-{[2-ethoxy-4-(2-oxo-1,3-oxazolidin-3-yl)phenyl]amino}[,2]-triazolo[1,5-a]pyridin-6-yl)phenyl]-2-(4-fluorophenyl)acetamide] | ≤ 1 nM |
| O=C(Cc1ccc(F)cc1)Nc1ccc(-c2ccc3nc(Nc4ccc(C(=O)N5CC6(COC6)C5)cc4OCC(F)(F)F)nn3c2)cc1 [Example 02.26, 2-(4-fluorophenyl)-N-[4-(2-{[4-(2-oxa-6-azaspiro[3.3]hept-6-ylcarbonyl)-2-(2,2,2-trifluoroethoxy)phenyl]amino}[,2]triazolo[1,5-a]pyridin-6-yl)phenyl]acetamide] | ≤ 1 nM |
| O=C(Cc1ccc(F)cc1)Nc1ccc(-c2ccc3nc(Nc4ccc(C(=O)N5CCOCC5)cc4OC(F)(F)F)nn3c2)cc1 [Example 02.10, 2-(4-fluorophenyl)-N-[4-(2-{[4-(morpholin-4-ylcarbonyl)-2-(trifluoromethoxy)phenyl]amino}[,2]-triazolo[1,5-a]pyridin-6-yl)phenyl]acetamide] | ≤ 1 nM |
